Measured values as given in US11155539B2, “4-pyridinylmethyl-morpholine derivatives and the use thereof as medicament” (Boehringer Ingelheim International GmbH, priority 2018, dated 2021).

Experiments:
[1] = target: Nav1.6 (Homo sapiens, UniProt Q9UQD0); experiment: Nav 1.6 inhibition, IonWorks Quattro electrophysiology; type: cell-based; conditions: for inhibition at 1 µM / inhibition at 5 µM: normalized to vehicle control (0%) and maximal inhibition control (100%); for inhibition of Nav1.6 currents (in words): reference compounds, FIG. 1 and FIG. 2
Experimental: Determination of Nav 1.6.Inhibition
IonWorks Quattro electrophysiological platform
The compounds were prepared in DMSO at 300× the final assay concentrations of 1 and 5 μM.
The 300×DMSO stock solutions were transferred into assay plates where 2 μl per well of each 300× stock solution were placed. All assay plates were stored at −80° C. until the day of assay.
On the day of the assay, the appropriate assay plate was thawed at room temperature, centrifuged, and 198 μl of external recording solution was added and mixed thoroughly. This provided a 1:100 dilution. A further 1:3 dilution occurred upon addition to the cells in the IonWorks Quattro electrophysiological platform, giving a 1:300 dilution in total. On each assay plate, at least 8 wells were reserved for vehicle control (0.3% DMSO) and at least 8 wells for each positive control specific to the cell line tested. The positive controls were tested at a maximal blocking and an approximate IC50 concentration. As positive control Lidocaine at concentrations of 30 and 1000 μM was used.
The solutions for recording Nav1.6 currents were as follows:
Amphotericin B was used to obtain electrical access to the cell interior at a final concentration of 200 μg/ml in internal recording solution.
State-dependent inhibition: Sodium channels when held at depolarized potential or long test pulse, the channels open and inactivate and then stay inactivated until the membrane potential is stepped back to hyperpolarized potentials, when the inactivated channels recover from inactivation into closed state.
Cells were held at −120 mV. In order to completely inactivate the sodium channels (pulse 1), the cells were pulsed to +0 mV for 2500 ms and stepped back to −120 mV for 10 ms (to completely recover from inactivation, however channels that had drugs bound to them will not recover from inactivation) before stepping to +0 mV for 20 ms (pulse 2).
Both the positive and vehicle control data associated with each cell line assayed are shown below as an example. The mean is shown for each positive and negative control as solid symbol with the total number of individual well replicates given next to the solid symbol. In addition, the individual data of each well are shown on the graph as open symbols so that the variation about the mean value can be readily assessed.
Shown below are the assay controls for the Nav1.6 IonWorks Quattro assay.
Tables 3 and 4 show the normalized percentage inhibition of Nav1.6 channel. […] (see also the figure Assay Control Results above).

[2] = target: T1, MDR1 (P-gp) (Homo sapiens, UniProt P08183); experiment: MDCK assay P-gp (permeability across MDCK-MDR1 monolayers); type: in vitro ADME; conditions: for Papp A→B at 2 h: apical-to-basal, MDCK-MDR1 monolayers, pH 7.4; for efflux ratio at 2 h: pH 7.4, Papp (b-a) divided by Papp (a-b), MDCK-MDR1, read-out: efflux ratio PEBA/PEAB
T1 construct: expressed in transfected cells; host or cells: MDCKII (Madin-Darby canine kidney)
Experimental: The MDCK assays provide information on the potential of a compound to pass the blood brain barrier. Permeability measurements across polarized, confluent MDCK-MDR1 cell monolayers grown on permeable filter supports are used as an in vitro absorption model: apparent permeability coefficients (PE) of the compounds across the MDCK-MDR1 cell monolayers are measured (pH 7.4, 37° C.) in apical-to-basal (AB) and basal-to-apical (BA) transport direction. The AB permeability (PEAB) represents drug absorption from the blood into the brain and the BA permeability (PEBA) drug efflux from the brain back into the blood via both, passive permeability as well as active transport mechanisms mediated by efflux and uptake transporters that are expressed on the MDCK-MDR1 cells, predominantly by the overexpressed human MDR1. Identical or similar permeabilities in both transport directions indicate passive permeation (PEBA/PEAB≤1), vectorial permeability points to additional active transport mechanisms. Higher PEBA than PEAB (PEBA/PEAB>5) indicates the involvement of active efflux mediated by MDR1, which might compromise the goal to achieve sufficient brain exposure. Therefore, this assay provides valuable support for selection of compounds applicable for further in vivo testing. High permeability not limited by efflux at the blood brain barrier is a favorable characteristic for compounds that are to be used for drugs acting primarily in the CNS.
Apparent permeability coefficients (Papp) of the compounds across the MDCK-MDR1 monolayers (MDCKII cells transfected with human MDR1 cDNA expression plasmid) are measured in apical-to-basal (AB) and basal-to-apical (BA) direction. MDCK-MDR1 cells (6×10^5 cells/cm^2) are seeded on filter inserts (Corning, Transwell, polycarbonate, 0.4 μm pore size) and cultured for 9 to 10 days. Compounds dissolved in DMSO stock solution (1-20 mM) are diluted with HTP-4 aqueous buffer (128.13 mM NaCl, 5.36 mM KCl, 1 mM MgSO4, 1.8 mM CaCl2, 4.17 mM NaHCO3, 1.19 mM Na2HPO4, 0.41 mM NaH2PO4, 15 mM HEPES, 20 mM glucose, pH 7.4) supplemented with 0.25% BSA to prepare the transport solutions (final concentration: 1 or 10 μM, final DMSO<=0.5%). The transport solution is applied to the apical or basolateral donor side for measuring A-B or B-A permeability, respectively. The receiver side contains HTP-4 buffer supplemented with 0.25% BSA. Samples are collected at the start and end of experiment from the donor and at various time intervals for up to 2 hours also from the receiver side for concentration measurement by HPLC-MS/MS (RapidFire High-throughput MS System (Agilent) coupled to QTrap 6500 (AB Sciex) or TSQ Vantage (Thermo Scientific)). Sampled receiver volumes are replaced with fresh receiver solution. Efflux ratio is calculated dividing the Papp (b-a) values by the Papp (a-b) values.

[3] = Metabolic stability in pooled human liver microsomes; type: in vitro ADME; conditions: pH 7.6, 1 μM compound, 37° C., NADPH, read-out: Half-life - t½ human liver microsomes
Description: Stability in human liver microsomes refers to the susceptibility of compounds to biotransformation in the context of selecting and/or designing drugs with favorable pharmacokinetic properties. The primary site of metabolism for many drugs is the liver. Human liver microsomes contain the cytochrome P450s (CYPs), and thus represent a model system for studying drug metabolism in vitro Enhanced stability in human liver microsomes is associated with several advantages, including increased bioavailability and adequate half-life, which can enable lower and less frequent dosing of patients. Thus, enhanced stability in human liver microsomes is a favorable characteristic for compounds that are to be used for drugs.
The metabolic degradation of the test compound was assayed at 37° C. with pooled human liver microsomes. The final incubation volume of 60 μl per time point contains TRIS buffer pH 7.6 at room temperature (0.1 M), magnesium chloride (5 mM aqueous solution), microsomal protein (1 mg/mL for human) and the test compound at a final concentration of 1 μM. Following a short preincubation period at 37° C., the reactions were initiated by addition of betanicotinamide adenine dinucleotide phosphate, reduced form (NADPH, 1 mM), and terminated by transferring an aliquot into acetonitril after different time points. After centrifugation (10000 g, 5 min), an aliquot of the supernatant was assayed by HPLC-MS/MS as described above for the MDCK assay P-gp for the amount of parent compound. The half-life was determined by the slope of the semi-logarithmic plot of the concentration-time profile.

[4] = target: T2, NMDA NR1/NR2B receptor (Homo sapiens, UniProt Q05586+Q13224); experiment: In vitro NMDA NR1/NR2B cell assay (FLIPR, intracellular calcium induced by glycine/glutamate); type: cell-based; conditions: HEK293 cells expressing NMDA NR1/NR2B; 20 μM glycine, 1 μM glutamate; read-out: IC50 (in vitro NR2B affinity, FLIPR assay)
T2 construct: host or cells: HEK293, tetracycline-inducible expression
Experimental: A human HEK293 cell line with tetracyclin-inducible expression of NMDA NR1/NR2B receptor was used as a test system for compound efficacy and potency. The cell line was purchased from ChanTest, Catalog #CT6121. Compound activity was determined by measuring the effect of compounds on intracellular calcium concentration induced by glycine/glutamate agonism in a FLIPRtetra system (Molecular Devices).
The cells were obtained as frozen cells in cryo-vials and stored until use at −150° C. Cells were grown in culture medium (DMEM/F12, 10% FBS, 5 μg/mL Blasticidin, 150 μg/mL Zeozin, 500 μg/mL Geneticin). […] For sub-culturing the cells were detached from flasks by Versene. For the assay, cells were detached, washed twice with induction medium (DMEM/F12 without glutamine, 10% FBS, 2 μg/mL Tetracycline, 2 mM Ketamine) and seeded to 384 well pure coat amine plates (Becton Dickinson, 50000 cells per well in 50 μl) 48 h prior to assay in induction medium.
The test compounds were dissolved in 100% DMSO at a concentration of 10 mM and in a first step diluted in DMSO to a concentration of 5 mM, followed by serial dilution steps in 100% DMSO. Dilution factor and number of dilution steps may vary according to needs. Typically 8 different concentrations by 1:5 dilutions were prepared in duplicate, further intermediate dilutions (1:37.5) of the substances were carried out with aqueous assay buffer (137 mM NaCl, 4 mM KCl, 1.8 mM CaCl2, 10 mM HEPES, 10 mM Glucose, pH 7.4) resulting in a compound concentration 3 times above the final test concentration and DMSO at 2.7% resulting in 0.9% final DMSO concentration in the assay.
At the assay day cells were washed 3× with assay buffer (as described above), 10 μL buffer remained in the wells after washing. 10 μL Ca kit loading buffer (AAT Bioquest; prepared from the kit containing the following components: Component A: Fluo-8 NW dissolved in 200 μL DMSO and 20 μl of this solution are mixed with 10 ml buffer prepared out of component B and C, Component B: 10× Pluronic® F127 Plus diluted 1:10 in component C, Component C: HHBS (Hanks with 20 mM Hepes) was added to the cells and the plates were incubated with lid for 60 minutes at room temperature. 20 μl assay buffer containing 60 μM glycine (20 μM final) and 3 μM glutamate (1 μM final) was added to column 1-23, column 24 got assay buffer without glycine/glutamate to serve as negative unstimulated control. Fluorescence (indicating the calcium influx as a result of the NR1/NR2B ion channel activation) was read on the FLIPRtetra device for 60 seconds to monitor the glutamate induced effects. After 2 minutes 20 μL of compound dilution prepared as described above or controls (row 1-22) in assay buffer were carefully added to the wells. […] The average of 2 measurements at 5 minutes and […] 10 seconds after compound addition is calculated and further used for IC50 calculations. Each assay microtiter compound dilution plate contained wells (in column 23 or 24) with DMSO controls instead of compound as controls for glycine/glutamate induced fluorescence (high controls) and wells with 1 μM of a reference NR2B NAM as low controls (Compound 22; reference: Layton, Mark E et al, ACS Chemical Neuroscience 2011, 2(7), 352-362).
The output file of the reader contains the well number and measured average fluorescence units. For data evaluation and calculation, the measurement of the low control was set as 0% control and the measurement of the high control was set as 100% control. The IC50 values were calculated using the standard 4 parameter logistic regression formula. Calculation: [y=(a−d)/(1+(x/c)^b)+d], a=low value, d=high value; x=conc M; c=IC50 M; b=slope.

Nav1.6, sequence (Q9UQD0 whole entry): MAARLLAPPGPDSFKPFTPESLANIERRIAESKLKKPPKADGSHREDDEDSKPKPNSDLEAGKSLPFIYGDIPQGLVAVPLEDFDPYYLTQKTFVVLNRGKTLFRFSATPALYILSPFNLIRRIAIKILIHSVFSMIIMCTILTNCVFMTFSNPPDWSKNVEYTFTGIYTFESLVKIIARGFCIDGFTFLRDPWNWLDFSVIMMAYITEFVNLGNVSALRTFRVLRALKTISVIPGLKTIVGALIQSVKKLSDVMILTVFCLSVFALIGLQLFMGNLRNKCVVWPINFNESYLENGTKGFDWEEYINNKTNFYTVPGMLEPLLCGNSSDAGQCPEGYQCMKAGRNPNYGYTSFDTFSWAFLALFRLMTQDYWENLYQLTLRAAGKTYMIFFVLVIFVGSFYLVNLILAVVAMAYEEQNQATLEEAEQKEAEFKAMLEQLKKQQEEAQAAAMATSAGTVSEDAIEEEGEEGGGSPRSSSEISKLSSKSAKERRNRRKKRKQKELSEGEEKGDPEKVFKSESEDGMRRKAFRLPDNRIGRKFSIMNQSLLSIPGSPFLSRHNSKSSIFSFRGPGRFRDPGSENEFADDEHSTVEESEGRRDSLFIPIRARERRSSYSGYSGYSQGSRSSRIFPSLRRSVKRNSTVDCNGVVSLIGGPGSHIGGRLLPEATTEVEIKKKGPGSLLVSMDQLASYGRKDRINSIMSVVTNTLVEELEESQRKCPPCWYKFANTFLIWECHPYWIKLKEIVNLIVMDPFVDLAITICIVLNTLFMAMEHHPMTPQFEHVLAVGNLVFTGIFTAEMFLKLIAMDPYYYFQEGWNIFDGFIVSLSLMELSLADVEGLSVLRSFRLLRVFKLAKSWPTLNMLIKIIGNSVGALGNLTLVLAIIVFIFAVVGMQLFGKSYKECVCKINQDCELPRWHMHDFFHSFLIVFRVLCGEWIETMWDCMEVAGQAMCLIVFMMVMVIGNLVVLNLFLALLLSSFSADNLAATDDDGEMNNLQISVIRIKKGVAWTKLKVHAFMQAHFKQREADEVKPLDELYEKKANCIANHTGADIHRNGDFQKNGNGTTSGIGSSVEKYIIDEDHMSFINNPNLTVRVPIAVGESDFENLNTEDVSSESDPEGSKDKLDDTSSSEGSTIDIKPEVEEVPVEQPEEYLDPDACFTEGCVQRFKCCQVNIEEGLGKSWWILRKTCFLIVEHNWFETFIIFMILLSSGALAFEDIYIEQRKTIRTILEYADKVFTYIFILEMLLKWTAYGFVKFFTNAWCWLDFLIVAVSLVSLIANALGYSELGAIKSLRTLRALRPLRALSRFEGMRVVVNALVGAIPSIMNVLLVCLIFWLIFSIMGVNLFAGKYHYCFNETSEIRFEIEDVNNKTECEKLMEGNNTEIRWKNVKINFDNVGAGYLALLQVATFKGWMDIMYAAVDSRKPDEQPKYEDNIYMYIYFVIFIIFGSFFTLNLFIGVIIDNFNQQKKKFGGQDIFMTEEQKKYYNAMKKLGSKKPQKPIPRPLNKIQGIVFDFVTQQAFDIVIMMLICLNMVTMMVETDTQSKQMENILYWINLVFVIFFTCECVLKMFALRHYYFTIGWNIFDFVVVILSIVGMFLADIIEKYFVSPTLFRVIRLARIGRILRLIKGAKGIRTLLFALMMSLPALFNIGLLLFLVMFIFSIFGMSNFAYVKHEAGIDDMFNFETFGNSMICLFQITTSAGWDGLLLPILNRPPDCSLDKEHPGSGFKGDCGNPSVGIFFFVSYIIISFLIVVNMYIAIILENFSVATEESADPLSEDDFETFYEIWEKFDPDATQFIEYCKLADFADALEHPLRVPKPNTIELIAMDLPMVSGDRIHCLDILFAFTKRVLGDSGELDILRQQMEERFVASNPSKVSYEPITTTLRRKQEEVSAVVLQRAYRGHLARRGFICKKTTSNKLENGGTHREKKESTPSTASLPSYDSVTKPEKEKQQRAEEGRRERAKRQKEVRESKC
T2 sequence (Q13224 27-1484, other chains not shown): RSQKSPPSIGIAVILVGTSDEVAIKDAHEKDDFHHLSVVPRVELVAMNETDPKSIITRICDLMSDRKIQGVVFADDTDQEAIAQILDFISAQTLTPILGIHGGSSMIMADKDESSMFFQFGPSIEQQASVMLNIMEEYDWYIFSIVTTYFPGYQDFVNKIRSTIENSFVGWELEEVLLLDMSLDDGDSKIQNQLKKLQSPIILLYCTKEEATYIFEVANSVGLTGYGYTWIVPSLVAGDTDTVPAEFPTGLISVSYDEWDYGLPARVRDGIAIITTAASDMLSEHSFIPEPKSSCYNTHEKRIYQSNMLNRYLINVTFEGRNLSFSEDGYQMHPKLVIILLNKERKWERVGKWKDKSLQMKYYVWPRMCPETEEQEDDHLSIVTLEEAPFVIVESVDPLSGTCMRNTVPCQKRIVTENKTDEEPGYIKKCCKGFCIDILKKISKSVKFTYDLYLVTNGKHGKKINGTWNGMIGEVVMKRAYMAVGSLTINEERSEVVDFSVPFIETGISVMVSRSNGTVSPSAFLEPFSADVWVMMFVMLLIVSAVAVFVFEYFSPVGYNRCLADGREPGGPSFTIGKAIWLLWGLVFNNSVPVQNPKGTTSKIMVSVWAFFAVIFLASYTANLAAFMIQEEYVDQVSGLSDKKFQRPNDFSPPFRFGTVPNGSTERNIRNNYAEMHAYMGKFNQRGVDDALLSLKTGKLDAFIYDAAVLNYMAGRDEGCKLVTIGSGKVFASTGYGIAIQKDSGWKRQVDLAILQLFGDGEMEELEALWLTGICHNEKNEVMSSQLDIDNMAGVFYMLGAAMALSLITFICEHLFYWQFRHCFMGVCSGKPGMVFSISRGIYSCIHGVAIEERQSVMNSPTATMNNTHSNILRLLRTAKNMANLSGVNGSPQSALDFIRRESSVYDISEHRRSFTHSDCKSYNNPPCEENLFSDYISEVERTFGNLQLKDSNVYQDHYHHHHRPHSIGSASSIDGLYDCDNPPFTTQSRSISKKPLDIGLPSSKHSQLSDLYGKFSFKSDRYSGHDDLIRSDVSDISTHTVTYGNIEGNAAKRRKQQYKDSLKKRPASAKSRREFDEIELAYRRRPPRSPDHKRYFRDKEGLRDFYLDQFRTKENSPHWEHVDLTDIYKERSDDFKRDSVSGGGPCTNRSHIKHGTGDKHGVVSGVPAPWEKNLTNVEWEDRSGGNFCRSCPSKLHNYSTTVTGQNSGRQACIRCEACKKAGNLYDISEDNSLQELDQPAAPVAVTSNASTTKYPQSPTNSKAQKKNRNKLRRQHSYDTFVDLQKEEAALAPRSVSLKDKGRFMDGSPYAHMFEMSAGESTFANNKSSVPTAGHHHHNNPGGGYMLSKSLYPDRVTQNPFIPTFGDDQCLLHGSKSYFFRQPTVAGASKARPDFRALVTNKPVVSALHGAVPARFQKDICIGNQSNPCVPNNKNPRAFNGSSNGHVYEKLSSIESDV
T1 sequence (P08183 whole entry): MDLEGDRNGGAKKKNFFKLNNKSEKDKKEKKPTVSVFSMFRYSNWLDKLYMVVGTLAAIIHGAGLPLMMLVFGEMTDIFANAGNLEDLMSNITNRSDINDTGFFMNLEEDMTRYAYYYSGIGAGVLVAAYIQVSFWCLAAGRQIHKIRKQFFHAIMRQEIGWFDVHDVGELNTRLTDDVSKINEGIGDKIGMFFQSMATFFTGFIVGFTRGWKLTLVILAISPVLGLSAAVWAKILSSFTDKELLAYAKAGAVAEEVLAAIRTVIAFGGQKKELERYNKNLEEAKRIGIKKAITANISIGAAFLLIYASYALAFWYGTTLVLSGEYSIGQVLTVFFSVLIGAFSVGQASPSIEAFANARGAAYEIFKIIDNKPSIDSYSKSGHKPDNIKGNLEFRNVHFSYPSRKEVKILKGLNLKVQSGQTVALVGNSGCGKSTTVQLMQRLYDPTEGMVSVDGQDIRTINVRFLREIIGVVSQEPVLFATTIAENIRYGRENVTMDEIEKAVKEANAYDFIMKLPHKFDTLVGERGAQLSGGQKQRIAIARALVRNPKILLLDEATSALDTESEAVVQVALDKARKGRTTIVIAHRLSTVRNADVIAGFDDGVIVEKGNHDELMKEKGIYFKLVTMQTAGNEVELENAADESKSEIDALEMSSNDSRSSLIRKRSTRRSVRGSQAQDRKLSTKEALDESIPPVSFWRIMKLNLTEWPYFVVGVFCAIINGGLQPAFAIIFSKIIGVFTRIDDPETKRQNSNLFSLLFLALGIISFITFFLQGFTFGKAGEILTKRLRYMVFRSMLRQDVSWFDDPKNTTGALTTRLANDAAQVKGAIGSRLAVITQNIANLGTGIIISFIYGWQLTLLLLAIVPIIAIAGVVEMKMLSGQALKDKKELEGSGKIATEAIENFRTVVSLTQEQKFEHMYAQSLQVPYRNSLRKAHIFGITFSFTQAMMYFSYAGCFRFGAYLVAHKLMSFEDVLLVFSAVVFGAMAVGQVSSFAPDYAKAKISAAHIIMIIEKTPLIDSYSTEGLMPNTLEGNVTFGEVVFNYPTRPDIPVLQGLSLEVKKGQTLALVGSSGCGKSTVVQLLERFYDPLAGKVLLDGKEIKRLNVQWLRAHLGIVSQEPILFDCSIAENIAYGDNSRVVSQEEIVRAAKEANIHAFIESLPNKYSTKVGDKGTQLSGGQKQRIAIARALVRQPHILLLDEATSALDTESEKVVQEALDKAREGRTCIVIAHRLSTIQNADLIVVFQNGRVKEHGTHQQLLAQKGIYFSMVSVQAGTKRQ

Row | SMILES | IC50 [4] [nM] | further results
1 | CNC(=O)C1CN(Cc2ccc(Oc3ccc(F)cc3F)nc2)CCO1 (centres unmarked) [Example 11] | – | inhibition at 1 µM [1]: 4.2%; inhibition at 5 µM [1]: -3.6%; Papp A→B at 2 h [2]: 72 ×10⁻⁶ cm/s; efflux ratio at 2 h [2]: 0.6; half-life at 1 μM [3]: > 2.17 h
2 | CNC(=O)[C@@H]1CN(Cc2ccc(Oc3ccc(F)cc3F)nc2)CCO1 [Example 11] | 103 | –
3 | CNC(=O)C1CN(Cc2ccc(Oc3ccc(C)cc3F)nc2)CCO1 (centres unmarked) [Example 12] | – | inhibition at 1 µM [1]: 5.1%; inhibition at 5 µM [1]: 10.2%; Papp A→B at 2 h [2]: 80 ×10⁻⁶ cm/s; efflux ratio at 2 h [2]: 0.7; half-life at 1 μM [3]: > 2.17 h
4 | CNC(=O)[C@@H]1CN(Cc2ccc(Oc3ccc(C)cc3F)nc2)CCO1 [Example 12] | 117 | –
5 | CNC(=O)[C@@H]1CN(Cc2ccc(Oc3ccc(C)cc3C)nc2)CCO1 [Example 13] | 442 | –
6 | CNC(=O)[C@@H]1CN(Cc2ccc(Oc3ccc(F)cc3)nc2)CCO1 [Example 14] | 198 | –
7 | CNC(=O)[C@@H]1CN(Cc2ccc(Oc3ccc(Cl)cc3F)nc2)CCO1 [Example 15] | 69 | –
8 | CNC(=O)[C@@H]1CN(Cc2ccc(Oc3ccc(Cl)cc3)nc2)CCO1 [Example 16] | 205 | –
9 | CNC(=O)[C@@H]1CN(Cc2ccc(Oc3ccccc3)cn2)CCO1 [Example 35] | 457 | –
10 | CNC(=O)[C@@H]1CN(Cc2ccc(Oc3ccccc3)nc2)CCO1 [Example 36] | 353 | –
11 | CNC(=O)[C@@H]1CN(Cc2ccc(Oc3c(F)cccc3F)nc2)CCO1 [Example 37] | 203 | –
12 | CNC(=O)[C@@H]1CN(Cc2ccc(Oc3c(C)cccc3F)nc2)CCO1 [Example 38] | 419 | –
13 | CNC(=O)[C@@H]1CN(Cc2ccc(Oc3c(F)cccc3F)cn2)CCO1 [Example 39] | 282 | –
14 | CNC(=O)[C@@H]1CN(Cc2ccc(Oc3cc(F)ccc3F)nc2)CCO1 [Example 40] | 452 | –
15 | CNC(=O)[C@@H]1CN(Cc2ccc(Oc3cc(F)ccc3Cl)nc2)CCO1 [Example 41] | 286 | –
16 | CCN(CC)CC(=O)Nc1c(C)cccc1C [Lidocaine, reference compound] | – | inhibition at 1000 µM ([1]; read-out: maximum inhibition at P1 (not normalized)): 46.4 to 47.2%; inhibition of Nav1.6 currents (in words) [1]: inhibited evoked currents in a concentration and use dependent manner
17 | CCCCNc1ccc(C(=O)OCCN(C)C)cc1 [Tetracaine, reference compound] | – | inhibition of Nav1.6 currents (in words) [1]: much stronger at depolarized potentials than at hyperpolarized potential
